Tests used:
[1] = pregnant mice, 100 mg/kg subcutaneously; ref Domoradzki et al. 2003; Shin et al. 2002; Uchida et al. 2002; cited from earlier work
[2] = tested on: ER; design: method as in Nagel et al. (2001); details: 1 mg/kg; ref Nagel et al. (2001); cited from earlier work
[3] = design: method as in Takahashi and Oishi 2000; details: pregnant rats; ref Takahashi and Oishi 2000; cited from earlier work
[4] = tested on: human and mouse ER-α; design: method as in Matthews et al. 2000; details: ref Matthews et al. 2000; cited from earlier work
[5] = target: T1, human ER-α (hER-α) (Homo sapiens, UniProt P03372); assay: In vitro estrogenic activity assay, stable HEK cell line with hER-α and ERE-luciferase reporter; format: cell-based
T1 construct: expressed in transfected cells
T1 sequence (P03372 1-595): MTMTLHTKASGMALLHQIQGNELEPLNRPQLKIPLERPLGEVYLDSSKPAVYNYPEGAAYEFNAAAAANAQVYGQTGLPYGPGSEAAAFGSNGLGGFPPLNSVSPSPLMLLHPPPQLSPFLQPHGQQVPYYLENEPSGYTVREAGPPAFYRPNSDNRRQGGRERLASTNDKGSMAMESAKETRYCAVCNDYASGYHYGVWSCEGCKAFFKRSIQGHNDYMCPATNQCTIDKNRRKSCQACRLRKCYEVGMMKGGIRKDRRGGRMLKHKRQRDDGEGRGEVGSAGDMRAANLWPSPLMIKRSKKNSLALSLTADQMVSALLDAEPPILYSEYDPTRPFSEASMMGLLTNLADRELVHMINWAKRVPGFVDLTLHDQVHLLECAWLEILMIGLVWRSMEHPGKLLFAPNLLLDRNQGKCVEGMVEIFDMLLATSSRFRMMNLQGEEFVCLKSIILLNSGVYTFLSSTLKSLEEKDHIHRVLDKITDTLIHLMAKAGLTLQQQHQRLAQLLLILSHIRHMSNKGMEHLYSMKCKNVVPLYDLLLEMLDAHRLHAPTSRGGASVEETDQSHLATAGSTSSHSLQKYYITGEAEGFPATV
Procedure: (§1) Briefly, cells were plated in 96-well tissue culture plates (NUNC, Life Technologies, Breda, The Netherlands) in medium consisting of phenol red–free Dulbecco’s modified Eagle’s medium/F12 (1:1) medium containing 3 × 10^−8 M selenite, 10 μg/mL transferrin, 0.2% (wt/vol) bovine serum albumin, and 5% (wt/vol) dextran-coated charcoal-stripped fetal calf serum. […] Luciferase activity of 25 μL cell lysate was measured with the Luclite Luciferase Reporter gene assay kit (Perkin-Elmer, Brussels, Belgium) according to the manufacturer’s instructions using 25 μL Luclite solution on a Topcount liquid scintillation counter (Perkin-Elmer).
(§2) The in vitro dose–response activation curves obtained with the stable cell lines were fitted using the sigmoidal fit {y = a0 + a1/1 + exp[–(x – a2)/a3]} in Slidewrite Plus for Windows (version 3.0; BIS, Ridderkerk, The Netherlands), which determines the fitting coefficients by an iterative process minimizing the c2 merit function (least squares criterion). […] The cell line data shown are the average of at least two independent experiments with each experimental point performed in triplicate. Data are shown as a percentage of maximal induction by E2.

[6] = tested on: estrogen receptors (ERs); assay: In vivo (in utero) luciferase measurement with IVIS imaging in transgenic ERE-luciferase embryos; design: species or system mouse; details: 10,000 μg/kg, 8 hr after exposure
Procedure: (§3) To obtain transgenic embryos, heterozygote transgenic males from line INS3 were mated with wild-type females (F1 from C57Bl/6J × CBA). Heterozygote males were used so that every litter would also contain wild type embryos, which could serve as an internal negative control. Females were checked daily for the presence of a vaginal plug, and when a plug was detected, that day was designated 0.5 day postcoitum (dpc).
(§4) Animal experiments were performed with approval of the Netherlands Academy of Arts and Sciences Animal Ethics Committee. The IVIS imaging experiments were done with additional approval of the Animal Ethics Committee of NV Organon.
(§5) We considered one litter as a statistical unit rather than one embryo because we assumed that all embryos in one litter were subject to the same variation of the compound injection and placental transfer. Therefore, the average ± SEM per litter was calculated, and these were then averaged to express the luciferase activity per group. All data were log-transformed and tested for normality with the Shapiro-Wilks test using SPSS 12.0 (SPSS, Chicago, IL, USA).

[7] = tested on: estrogen receptors (ERs); assay: Ex vivo luciferase measurement in lysates of transgenic embryos exposed in utero; design: species or system mouse
Procedure: as §3, §4
When embryos were isolated from the amniotic membranes, we kept tails separated and stored at –20°C for subsequent DNA isolation and polymerase chain reaction for presence of the transgene, as described previously ([Legler et al. 2000]). Only transgenic embryos were used for further luciferase measurement. Subsequently, embryos were thawed on ice and lysis buffer [1% (vol/vol) Triton X-100, 2.5 × 10^−2 M glycylglycine, 1.5 × 10^−2 M MgSO4, 4 × 10^−3 M EGTA, and 1 × 10^−3 M dithiothreitol (DTT)] was added. Next, samples were sonicated, the lysate centrifuged, and the supernatant collected. […] Luciferase activity was corrected for protein content as measured with the Bradford assay.
as §5

[8] = target: T2, hER-β (Homo sapiens, UniProt Q92731); assay: In vitro estrogenic activity assay, stable HEK cell line with hER-β and ERE-luciferase reporter; format: cell-based
T2 construct: expressed in transfected cells
T2 sequence (Q92731 whole entry): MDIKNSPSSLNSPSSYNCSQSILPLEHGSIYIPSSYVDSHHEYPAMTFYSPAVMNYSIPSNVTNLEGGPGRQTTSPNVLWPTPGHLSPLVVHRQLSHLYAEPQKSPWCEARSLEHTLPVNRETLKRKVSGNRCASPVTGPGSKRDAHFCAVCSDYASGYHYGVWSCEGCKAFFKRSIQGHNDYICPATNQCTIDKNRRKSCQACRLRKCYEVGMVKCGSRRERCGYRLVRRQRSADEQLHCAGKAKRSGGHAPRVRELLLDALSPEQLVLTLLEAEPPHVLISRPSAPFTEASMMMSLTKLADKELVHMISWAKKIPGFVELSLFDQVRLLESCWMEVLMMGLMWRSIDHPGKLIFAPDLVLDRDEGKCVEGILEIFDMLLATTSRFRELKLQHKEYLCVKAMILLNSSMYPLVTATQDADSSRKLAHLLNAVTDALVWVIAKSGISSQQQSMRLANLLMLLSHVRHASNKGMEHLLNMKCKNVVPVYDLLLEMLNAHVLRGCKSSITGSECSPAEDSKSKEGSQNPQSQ
Procedure: as §1, §2

[9] = tested on: uterine wet weight; details: cited from earlier work
[10] = design: method as in McLachlan 1977; details: 14C-DES injected in pregnant mice; ref McLachlan 1977; cited from earlier work
[11] = tested on: estrogen receptors (ERs); details: adult transgenic animals; ref Lemmen et al. 2004; cited from earlier work

Row | SMILES | time after exposure at which detected in fetal sera, liver, brain, uterus and testes [1] | ER transcriptional activity in the adult uterus [2] | time of peak concentration in fetal circulation [3] | affinity of human versus mouse ER-α [4] | times less active than DES in activating ER-α [5] | luciferase activity versus oil-exposed animals, IVIS [6] | luciferase activity versus oil-exposed controls, embryo lysates ([7]; 1,000 μg/kg, 8 hr after exposure) | luciferase activity versus oil-exposed controls, embryo lysates ([7]; 10,000 μg/kg, 8 hr after exposure) | dose at which in utero luciferase activation was significant from oil-exposed controls ([7]; 8 hr after exposure) | luciferase activity versus oil-exposed animals, embryo lysates ([7]; 24 hr after exposure, BPA 10–10,000 μg/kg (Figure 2)) | times less active than DES toward ER-β transactivation [8] | uterine wet weight response ([9]; 1 mg/kg, ref Nagel et al. (2001)) | uterotrophic response ([9]; CD-1 mice, 100 mg/kg, ref Markey et al. 2001) | activity in the uterine wet weight assay ([9]; CFLP mice, 0.5 mg/mouse (~ 16.7 mg/kg), ref Coldham et al. 1997) | toxicity in the uterine wet weight assay ([9]; mouse, in vivo, 167 mg/kg) | time of peak fetal plasma levels [10] | time of peak luciferase activity after exposure [11]
1 | CC(C)(c1ccc(O)cc1)c1ccc(O)cc1 [BPA, bisphenol A] | 30 min | significant increase | 15 to 20 min | same affinity | 5,000 times | not statistically significant | significantly higher | significantly higher | 1 mg/kg | no difference | 1,400 times | did not induce | induced | inactive | toxic | – | –
2 | CC/C(=C(/CC)c1ccc(O)cc1)c1ccc(O)cc1 [DES, diethylstilbestrol, reference compound] | – | – | – | same affinity | – | – | – | – | – | – | – | – | – | – | – | 2 h | –
3 | C[C@]12CC[C@@H]3c4ccc(O)cc4CC[C@H]3[C@@H]1CC[C@@H]2O [E2, 17β-estradiol] | – | – | – | – | – | – | – | – | – | – | – | – | – | – | – | – | 8 h

— article PMC1247619 (Environmental Health Perspectives, 2004)
